These compounds were tested against Pim-1 (Homo sapiens (Human), UniProt P11309) (assay: Pim-1 kinase assay). Settings: 1 mM ATP; read-out: Pim1 IC50.
Type: biochemical
Description: Supplementation of the STOP buffer with beads and stopping the reactions were done under reduced light. Prior to the stopping reactions STOP buffer with beads was pre-incubated for 1 h in the dark at room temperature. After stopping the reactions, plates were incubated for 1 h in the dark at room temperature before reading on a PHERAstar FS plate reader (BMG Labtech) under reduced light.

Sequence of Pim-1 (P11309 whole entry): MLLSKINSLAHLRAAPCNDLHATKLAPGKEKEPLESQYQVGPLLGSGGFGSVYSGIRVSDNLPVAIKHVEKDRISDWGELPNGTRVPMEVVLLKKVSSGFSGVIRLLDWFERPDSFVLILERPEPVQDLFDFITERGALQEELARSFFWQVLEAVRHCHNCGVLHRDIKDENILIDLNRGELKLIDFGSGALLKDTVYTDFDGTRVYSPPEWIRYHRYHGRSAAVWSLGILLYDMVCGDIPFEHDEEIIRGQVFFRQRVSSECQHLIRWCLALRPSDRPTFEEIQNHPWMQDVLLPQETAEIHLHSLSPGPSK

IC50 [nM]	Structure (SMILES)
≤ 100	Nc1ncc(-c2c(F)cccc2F)nc1C(=O)Nc1cnc2c(c1N1CCC[C@H](N)C1)CCC2O (single isomer, unassigned) [62 (Diastereoisomer 1)]
≤ 100	Nc1ncc(-c2c(F)cccc2F)nc1C(=O)Nc1cnc2c(c1N1CCC[C@H](N)C1)CCC2O (single isomer, unassigned) [62 (Diastereoisomer 2)]
≤ 100	COCc1cc(F)c(-c2nc(C(=O)Nc3cnc4c(c3N3C[C@H](C)C[C@H](N)C3)CCC4O)ccc2F)c(F)c1 (single isomer, unassigned) [64 (Diastereoisomer 1)]
≤ 100	COCc1cc(F)c(-c2nc(C(=O)Nc3cnc4c(c3N3C[C@H](C)C[C@H](N)C3)CCC4O)ccc2F)c(F)c1 (single isomer, unassigned) [64 (Diastereoisomer 2)]
≤ 100	C[C@@H]1C[C@H](N)CN(c2c(NC(=O)c3ccc(F)c(-c4c(F)cc(C(C)(C)O)cc4F)n3)cnc3c2CCC3O)C1 (single isomer, unassigned) [67 (Diastereoisomer 1)]
≤ 100	C[C@@H]1C[C@H](N)CN(c2c(NC(=O)c3ccc(F)c(-c4c(F)cc(C(C)(C)O)cc4F)n3)cnc3c2CCC3O)C1 (single isomer, unassigned) [67 (Diastereoisomer 2)]
≤ 100	N[C@@H]1CN(c2c(NC(=O)c3ccc(F)c(-c4c(F)cccc4F)n3)cnc3c2CCC3O)C[C@H](C2CC2)[C@H]1O (single isomer, unassigned) [68 (Diastereoisomer 1)]
≤ 100	N[C@@H]1CN(c2c(NC(=O)c3ccc(F)c(-c4c(F)cccc4F)n3)cnc3c2CCC3O)C[C@H](C2CC2)[C@H]1O (single isomer, unassigned) [68 (Diastereoisomer 2)]
≤ 100	C[C@@H]1C[C@H](N)CN(c2c(NC(=O)c3ccc(F)c(-c4c(F)cc(OC5CCCOC5)cc4F)n3)cnc3c2CCC3O)C1 (single isomer, unassigned) [70 (Diastereoisomer 1)]

Structure (SMILES)	IC50 [nM]
C[C@H]1CN(c2c(NC(=O)c3ccc(F)c(-c4c(F)cccc4F)n3)cnc3c2CCC3O)C[C@@H](N)C1(C)O (single isomer, unassigned) [63 (Diastereoisomer 1)]	≤ 100
C[C@H]1CN(c2c(NC(=O)c3ccc(F)c(-c4c(F)cccc4F)n3)cnc3c2CCC3O)C[C@@H](N)C1(C)O (single isomer, unassigned) [63 (Diastereoisomer 2)]	≤ 100
C[C@H]1CN(c2c(NC(=O)c3ccc(F)c(-c4c(F)cccc4F)n3)cnc3c2CCC3O)C[C@@H](N)C1(C)O (single isomer, unassigned) [63 (Diastereoisomer 3)]	≤ 100
C[C@H]1CN(c2c(NC(=O)c3ccc(F)c(-c4c(F)cccc4F)n3)cnc3c2CCC3O)C[C@@H](N)C1(C)O (single isomer, unassigned) [63 (Diastereoisomer 4)]	≤ 100
COCc1cc(F)c(-c2nc(C(=O)Nc3cnc4c(c3N3C[C@@H](N)[C@H](O)[C@@H](C)C3)CCC4O)ccc2F)c(F)c1 (single isomer, unassigned) [66 (Diastereoisomer 1)]	≤ 100
COCc1cc(F)c(-c2nc(C(=O)Nc3cnc4c(c3N3C[C@@H](N)[C@H](O)[C@@H](C)C3)CCC4O)ccc2F)c(F)c1 (single isomer, unassigned) [66 (Diastereoisomer 2)]	≤ 100

What follows are compounds tested against Pim-2 (Homo sapiens (Human), UniProt Q9P1W9) (assay: Pim-2 kinase assay). Settings: 1 mM ATP; read-out: Pim2 IC50.
Type: biochemical
Description: Pim-2 kinase assay-20 μL reactions were run in white 384 well polystyrene plates dotted with 0.8 μL compound/DMSO in the assay buffer (50 mM Tris, pH 7.5, 0.01% Tween-20, 5 mM MgCl2, 0.01% BSA, 5 mM DTT), containing 0.05 μM Fluorescein-labeled CREBtide peptide substrate (Invitrogen PV3508), 1 mM ATP, and 1 nM enzyme (Invitrogen PV3649) for 2 h at 25° C. Reactions were stopped by addition of 10 μL TR-FRET Dilution Buffer (Invitrogen PV3574) with 30 mM EDTA and 1.5 nM LanthaScreen Tb-CREB pSer133 antibody (Invitrogen PV3566). After 30 min. incubation at room temperature, plates were read on a PHERAstar FS plate reader (BMG Labtech).
Although the above in vitro assays are conducted at 1 mM ATP compounds can also be evaluated for potency and in vitro activity against PIM targets utilizing Km conditions, where the concentration of ATP is set to the Km value and the assay is more sensitive to PIM inhibition activity.

Sequence of Pim-2 (Q9P1W9 whole entry): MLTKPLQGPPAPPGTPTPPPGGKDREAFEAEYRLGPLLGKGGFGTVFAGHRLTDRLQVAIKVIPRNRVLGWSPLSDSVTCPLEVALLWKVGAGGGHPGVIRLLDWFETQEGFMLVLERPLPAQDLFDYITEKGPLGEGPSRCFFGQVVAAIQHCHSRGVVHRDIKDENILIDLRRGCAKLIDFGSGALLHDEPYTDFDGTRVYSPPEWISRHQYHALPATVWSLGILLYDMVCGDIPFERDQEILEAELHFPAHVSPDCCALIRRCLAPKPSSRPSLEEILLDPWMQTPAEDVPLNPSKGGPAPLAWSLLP

IC50 [nM]	Structure (SMILES)
100 to 1000	Nc1ncc(-c2c(F)cccc2F)nc1C(=O)Nc1cnc2c(c1N1CCC[C@H](N)C1)CCC2O (single isomer, unassigned) [62 (Diastereoisomer 1)]
100 to 1000	Nc1ncc(-c2c(F)cccc2F)nc1C(=O)Nc1cnc2c(c1N1CCC[C@H](N)C1)CCC2O (single isomer, unassigned) [62 (Diastereoisomer 2)]
≤ 100	COCc1cc(F)c(-c2nc(C(=O)Nc3cnc4c(c3N3C[C@H](C)C[C@H](N)C3)CCC4O)ccc2F)c(F)c1 (single isomer, unassigned) [64 (Diastereoisomer 1)]
≤ 100	COCc1cc(F)c(-c2nc(C(=O)Nc3cnc4c(c3N3C[C@H](C)C[C@H](N)C3)CCC4O)ccc2F)c(F)c1 (single isomer, unassigned) [64 (Diastereoisomer 2)]
≤ 100	C[C@@H]1C[C@H](N)CN(c2c(NC(=O)c3ccc(F)c(-c4c(F)cc(C(C)(C)O)cc4F)n3)cnc3c2CCC3O)C1 (single isomer, unassigned) [67 (Diastereoisomer 1)]
≤ 100	C[C@@H]1C[C@H](N)CN(c2c(NC(=O)c3ccc(F)c(-c4c(F)cc(C(C)(C)O)cc4F)n3)cnc3c2CCC3O)C1 (single isomer, unassigned) [67 (Diastereoisomer 2)]
≤ 100	N[C@@H]1CN(c2c(NC(=O)c3ccc(F)c(-c4c(F)cccc4F)n3)cnc3c2CCC3O)C[C@H](C2CC2)[C@H]1O (single isomer, unassigned) [68 (Diastereoisomer 1)]
≤ 100	N[C@@H]1CN(c2c(NC(=O)c3ccc(F)c(-c4c(F)cccc4F)n3)cnc3c2CCC3O)C[C@H](C2CC2)[C@H]1O (single isomer, unassigned) [68 (Diastereoisomer 2)]
≤ 100	C[C@@H]1C[C@H](N)CN(c2c(NC(=O)c3ccc(F)c(-c4c(F)cc(OC5CCCOC5)cc4F)n3)cnc3c2CCC3O)C1 (single isomer, unassigned) [70 (Diastereoisomer 1)]

Structure (SMILES)	IC50 [nM]
C[C@H]1CN(c2c(NC(=O)c3ccc(F)c(-c4c(F)cccc4F)n3)cnc3c2CCC3O)C[C@@H](N)C1(C)O (single isomer, unassigned) [63 (Diastereoisomer 1)]	≤ 100
C[C@H]1CN(c2c(NC(=O)c3ccc(F)c(-c4c(F)cccc4F)n3)cnc3c2CCC3O)C[C@@H](N)C1(C)O (single isomer, unassigned) [63 (Diastereoisomer 2)]	≤ 100
C[C@H]1CN(c2c(NC(=O)c3ccc(F)c(-c4c(F)cccc4F)n3)cnc3c2CCC3O)C[C@@H](N)C1(C)O (single isomer, unassigned) [63 (Diastereoisomer 3)]	≤ 100
C[C@H]1CN(c2c(NC(=O)c3ccc(F)c(-c4c(F)cccc4F)n3)cnc3c2CCC3O)C[C@@H](N)C1(C)O (single isomer, unassigned) [63 (Diastereoisomer 4)]	≤ 100
COCc1cc(F)c(-c2nc(C(=O)Nc3cnc4c(c3N3C[C@@H](N)[C@H](O)[C@@H](C)C3)CCC4O)ccc2F)c(F)c1 (single isomer, unassigned) [66 (Diastereoisomer 1)]	≤ 100
COCc1cc(F)c(-c2nc(C(=O)Nc3cnc4c(c3N3C[C@@H](N)[C@H](O)[C@@H](C)C3)CCC4O)ccc2F)c(F)c1 (single isomer, unassigned) [66 (Diastereoisomer 2)]	≤ 100

Each compound was assayed against Pim-3 (Homo sapiens (Human), UniProt Q86V86) (assay: Pim-3 kinase assay). Settings: 1 mM ATP; read-out: Pim3 IC50.
Type: biochemical
Description: Pim-1 and Pim-3 kinase assays-20 μL reactions were run in white 384 well polystyrene plates dotted with 0.8 μL compound/DMSO in the assay buffer (50 mM Tris, pH 7.5, 0.01% Tween-20, 5 mM MgCl2, 0.01% BSA, 5 mM DTT), containing 0.05 μM Biotin-labeled BAD peptide substrate (AnaSpec 62269), 1 mM ATP, and […] (Pim-1, Invitrogen PV3503) or […] (Pim-3, Millipore 14-738) enzyme for 1 h at 25° C. Reactions were stopped by addition of 10 μL STOP Buffer (150 mM Tris, pH=7.5, 150 mM NaCl, 75 mM EDTA, 0.01% Tween-20, 0.3% BSA) supplemented with Phospho-Bad (Ser112) Antibody (Cell Signaling 9291) diluted 666-fold, and Streptavidin donor beads (PerkinElmer 6760002) along with Protein-A acceptor beads (PerkinElmer 6760137) at 15 μg/mL each. Supplementation of the STOP buffer with beads and stopping the reactions were done under reduced light. Prior to the stopping reactions STOP buffer with beads was pre-incubated for 1 h in the dark at room temperature. After stopping the reactions, plates were incubated for 1 h in the dark at room temperature before reading on a PHERAstar FS plate reader (BMG Labtech) under reduced light.

IC50 [nM]	Structure (SMILES)
≤ 100	Nc1ncc(-c2c(F)cccc2F)nc1C(=O)Nc1cnc2c(c1N1CCC[C@H](N)C1)CCC2O (single isomer, unassigned) [62 (Diastereoisomer 1)]
≤ 100	Nc1ncc(-c2c(F)cccc2F)nc1C(=O)Nc1cnc2c(c1N1CCC[C@H](N)C1)CCC2O (single isomer, unassigned) [62 (Diastereoisomer 2)]
≤ 100	COCc1cc(F)c(-c2nc(C(=O)Nc3cnc4c(c3N3C[C@H](C)C[C@H](N)C3)CCC4O)ccc2F)c(F)c1 (single isomer, unassigned) [64 (Diastereoisomer 1)]
≤ 100	COCc1cc(F)c(-c2nc(C(=O)Nc3cnc4c(c3N3C[C@H](C)C[C@H](N)C3)CCC4O)ccc2F)c(F)c1 (single isomer, unassigned) [64 (Diastereoisomer 2)]
≤ 100	C[C@@H]1C[C@H](N)CN(c2c(NC(=O)c3ccc(F)c(-c4c(F)cc(C(C)(C)O)cc4F)n3)cnc3c2CCC3O)C1 (single isomer, unassigned) [67 (Diastereoisomer 1)]
≤ 100	C[C@@H]1C[C@H](N)CN(c2c(NC(=O)c3ccc(F)c(-c4c(F)cc(C(C)(C)O)cc4F)n3)cnc3c2CCC3O)C1 (single isomer, unassigned) [67 (Diastereoisomer 2)]
≤ 100	N[C@@H]1CN(c2c(NC(=O)c3ccc(F)c(-c4c(F)cccc4F)n3)cnc3c2CCC3O)C[C@H](C2CC2)[C@H]1O (single isomer, unassigned) [68 (Diastereoisomer 1)]
≤ 100	N[C@@H]1CN(c2c(NC(=O)c3ccc(F)c(-c4c(F)cccc4F)n3)cnc3c2CCC3O)C[C@H](C2CC2)[C@H]1O (single isomer, unassigned) [68 (Diastereoisomer 2)]
≤ 100	C[C@@H]1C[C@H](N)CN(c2c(NC(=O)c3ccc(F)c(-c4c(F)cc(OC5CCCOC5)cc4F)n3)cnc3c2CCC3O)C1 (single isomer, unassigned) [70 (Diastereoisomer 1)]

Structure (SMILES)	IC50 [nM]
C[C@H]1CN(c2c(NC(=O)c3ccc(F)c(-c4c(F)cccc4F)n3)cnc3c2CCC3O)C[C@@H](N)C1(C)O (single isomer, unassigned) [63 (Diastereoisomer 1)]	≤ 100
C[C@H]1CN(c2c(NC(=O)c3ccc(F)c(-c4c(F)cccc4F)n3)cnc3c2CCC3O)C[C@@H](N)C1(C)O (single isomer, unassigned) [63 (Diastereoisomer 2)]	≤ 100
C[C@H]1CN(c2c(NC(=O)c3ccc(F)c(-c4c(F)cccc4F)n3)cnc3c2CCC3O)C[C@@H](N)C1(C)O (single isomer, unassigned) [63 (Diastereoisomer 3)]	≤ 100
C[C@H]1CN(c2c(NC(=O)c3ccc(F)c(-c4c(F)cccc4F)n3)cnc3c2CCC3O)C[C@@H](N)C1(C)O (single isomer, unassigned) [63 (Diastereoisomer 4)]	≤ 100
COCc1cc(F)c(-c2nc(C(=O)Nc3cnc4c(c3N3C[C@@H](N)[C@H](O)[C@@H](C)C3)CCC4O)ccc2F)c(F)c1 (single isomer, unassigned) [66 (Diastereoisomer 1)]	≤ 100
COCc1cc(F)c(-c2nc(C(=O)Nc3cnc4c(c3N3C[C@@H](N)[C@H](O)[C@@H](C)C3)CCC4O)ccc2F)c(F)c1 (single isomer, unassigned) [66 (Diastereoisomer 2)]	≤ 100

— patent US10265307B2, “Thiazolecarboxamides and pyridinecarboxamide compounds useful as Pim kinase inhibitors” (Incyte Corporation, priority 2013, dated 2019)
